Measured values taken from patent US12479843B2, “Spiro ring-containing quinazoline compounds” (WIGEN BIOMEDICINE TECHNOLOGY (SHANGHAI) CO., LTD., priority 2019, dated 2025).

Tests used:
pERK level in H358 cells = test: pERK and ERK protein content assay in H358 cells (ELISA); format: cell-based; conditions: Homo sapiens, NCI-H358, compound 1 μM, 24 h, pERK/ERK ratio compared with DMSO group, read-out: Inhibition rate (%) of pERK level
Protocol: H358 cells were seeded in a 24-well plate. After one day of growth, a test compound (at a concentration of 1 μM) was added. After 24 h of action of the compound, the cells were lysed, and the cell lysate was transferred to a 96-well ELISA plate. The levels of pERK and ERK in the lysate were measured using an ELISA kit (abcam 176660). The ratio of pERK to ERK was calculated and compared with that of the DMSO group, and the percentage of inhibition of pERK activity by the compound was calculated.

H358 cells = test: Antiproliferative activity against H358 cells (Cell Titer Glow, ultra-low attachment plate); format: cell-based; conditions: Homo sapiens, NCI-H358, 72 h, 96-well ultra-low attachment plate, three days after addition of compound, Cell Titer Glow
Protocol: 2500 H358 cells were seeded in a 96-well ultra-low attachment plate (corning, 7007). After one day of growth, a serially diluted compound (a maximum concentration of 5 μM, 5-fold dilution, a total of five doses) was added. Three days after the addition of the compound, Cell Titer Glow (Promega, G9681) was added to evaluate pellet growth, and the IC50 value was calculated.

Structure (SMILES)	IC50 (H358 cells)	inhibition at 1 µM (pERK level in H358 cells)
C=CC(=O)N1CC2(CCN(c3nc(OC4CCN(CCOC)CC4)nc4c(N(C)CC(F)(F)F)c(-c5c(C)ccc6[nH]ncc56)c(C5CC5)cc34)CC2)C1 [Compound 7]	0.3 to 1 µM	50 to 90%
C=CC(=O)N1CC2(CCN(c3nc(OC4CCN(CCOC)CC4)nc4c(N5CCC5)c(-c5c(C)ccc6[nH]ncc56)c(C5CC5)cc34)CC2)C1 [Compound 8]	0.3 to 1 µM	50 to 90%
C=CC(=O)N1CC2(CCN(c3nc(OC4CCN(CCOC)CC4)nc4c(OCC(F)(F)F)c(-c5c(C)ccc6[nH]ncc56)ccc34)CC2)C1 [Compound 10]	0.3 to 1 µM	50 to 90%
C=CC(=O)N1CC2(CCN(c3nc(OC4CCN(CCOC)CC4)nc4c(OCC(F)(F)F)c(-c5c(C)ccc6[nH]ncc56)c(C)cc34)CC2)C1 [Compound 13]	0.3 to 1 µM	> 90%
C=CC(=O)N1CC2(CCN(c3nc(OC4CCN(CCOC)CC4)nc4c(OCC(F)(F)F)c(-c5c(C)ccc6[nH]ncc56)c(CC)cc34)CC2)C1 [Compound 14]	0.3 to 1 µM	> 90%
C#Cc1cc2c(N3CCC4(CC3)CN(C(=O)C=C)C4)nc(OC3CCN(CCOC)CC3)nc2c(OCC(F)(F)F)c1-c1c(C)ccc2[nH]ncc12 [Compound 16]	0.3 to 1 µM	50 to 90%
C=C(C#N)C(=O)N1CC2(CCN(c3nc(OC4CCN(CCOC)CC4)nc4c(OCC(F)(F)F)c(-c5c(C)ccc6[nH]ncc56)c(C5CC5)cc34)CC2)C1 [Compound 18]	0.3 to 1 µM	50 to 90%
C=C(C(=O)N1CC2(CCN(c3nc(OC4CCN(CCOC)CC4)nc4c(OCC(F)(F)F)c(-c5c(C)ccc6[nH]ncc56)c(C5CC5)cc34)CC2)C1)C(F)(F)F [Compound 19]	0.3 to 1 µM	50 to 90%
C=C(C(=O)N1CC2(CCN(c3nc(OC4CCN(CCOC)CC4)nc4c(OCC(F)(F)F)c(-c5c(C)ccc6[nH]ncc56)c(C5CC5)cc34)CC2)C1)n1ccnc1 [Compound 22]	0.3 to 1 µM	50 to 90%
C=C(C(=O)N1CC2(CCN(c3nc(OC4CCN(CCOC)CC4)nc4c(OCC(F)(F)F)c(-c5c(C)ccc6[nH]ncc56)c(C5CC5)cc34)CC2)C1)n1cccc1 [Compound 24]	0.3 to 1 µM	50 to 90%
C=CC(=O)N1CC2(C1)CN(c1nc(OC3CCN(CCOC)CC3)nc3c(OCC(F)(F)F)c(-c4c(C)ccc5[nH]ncc45)c(C4CC4)cc13)C2 [Compound 26]	0.3 to 1 µM	50 to 90%
C=CC(=O)N1CCC2(CC1)CN(c1nc(OC3CCN(CCOC)CC3)nc3c(OCC(F)(F)F)c(-c4c(C)ccc5[nH]ncc45)c(C4CC4)cc13)C2 [Compound 27]	0.3 to 1 µM	50 to 90%
C=CC(=O)N1CC2(CCN(c3nc(OC4CCN(CCOC)CC4)nc4c(OCC(F)(F)F)c(-c5c(F)ccc6[nH]cnc56)c(C5CC5)cc34)CC2)C1 [Compound 37]	0.3 to 1 µM	50 to 90%
C=C(F)C(=O)N1CC2(CCN(c3nc(OC4CCN(CCOC)CC4)nc4c(OCC(F)(F)F)c(-c5c(F)ccc6[nH]cnc56)c(C5CC5)cc34)CC2)C1 [Compound 38]	0.3 to 1 µM	> 90%
C=C(F)C(=O)N1CC2(CCN(c3nc(OC4CCN(CCOC)CC4)nc4c(OCC(F)(F)F)c(-c5c(C)ccc6cc[nH]c(=O)c56)c(C5CC5)cc34)CC2)C1 [Compound 42]	0.3 to 1 µM	> 90%
C=C(F)C(=O)N1CC2(CCN(c3nc(OC4CCN(CCOC)CC4)nc4c(OCC(F)(F)F)c(-c5c(N)cccc5F)c(C5CC5)cc34)CC2)C1 [Compound 48]	0.3 to 1 µM	> 90%
C=CC(=O)N1CC2(CCN(c3nc(OC4CCN(CCOC)CC4)nc4c(OCC(F)(F)F)c(-c5c(F)cccc5F)c(C5CC5)cc34)CC2)C1 [Compound 53]	< 0.3 µM	> 90%
C=C(F)C(=O)N1CC2(CCN(c3nc(OC4CCN(CCOC)CC4)nc4c(OCC(F)(F)F)c(-c5c(F)cccc5F)c(C5CC5)cc34)CC2)C1 [Compound 54]	< 0.3 µM	> 90%

The next lines start with results.

IC50 (H358 cells)	Structure (SMILES)	inhibition at 1 µM (pERK level in H358 cells)
< 0.3 µM	C=C(F)C(=O)N1CC2(CCN(c3nc(OC4CCN(CCOC)CC4)nc4c(OCC(F)F)c(-c5c(C)ccc6[nH]ncc56)c(C5CC5)cc34)CC2)C1 [Compound 3]	> 90%
< 0.3 µM	C=Cc1cc2c(N3CCC4(CC3)CN(C(=O)C(=C)F)C4)nc(OC3CCN(CCOC)CC3)nc2c(OCC)c1-c1c(C)ccc2[nH]ncc12 [Compound 4]	> 90%
< 0.3 µM	C=CC(=O)N1CC2(CCN(c3nc(OC4CCN(CCOC)CC4)nc4c(N5CC(F)(F)C5)c(-c5c(C)ccc6[nH]ncc56)c(C5CC5)cc34)CC2)C1 [Compound 9]	> 90%
< 0.3 µM	C=CC(=O)N1CC2(CCN(c3nc(OC4CCN(CCOC)CC4)nc4c(OCC(F)(F)F)c(-c5c(C)ccc6[nH]ncc56)c(F)cc34)CC2)C1 [Compound 11]	> 90%
< 0.3 µM	C=CC(=O)N1CC2(CCN(c3nc(OC4CCN(CCOC)CC4)nc4c(OCC(F)(F)F)c(-c5c(C)ccc6[nH]ncc56)c(Cl)cc34)CC2)C1 [Compound 12]	> 90%
< 0.3 µM	C=CC(=O)N1CC2(CCN(c3nc(OC4CCN(CCOC)CC4)nc4c(OCC(F)(F)F)c(-c5c(C)ccc6[nH]ncc56)c(C(C)C)cc34)CC2)C1 [Compound 15]	> 90%
< 0.3 µM	C=C(C)C(=O)N1CC2(CCN(c3nc(OC4CCN(CCOC)CC4)nc4c(OCC(F)(F)F)c(-c5c(C)ccc6[nH]ncc56)c(C5CC5)cc34)CC2)C1 [Compound 17]	> 90%
< 0.3 µM	C=C(C(=O)N1CC2(CCN(c3nc(OC4CCN(CCOC)CC4)nc4c(OCC(F)(F)F)c(-c5c(C)ccc6[nH]ncc56)c(C5CC5)cc34)CC2)C1)c1cnccn1 [Compound 20]	> 90%
< 0.3 µM	C=C(C(=O)N1CC2(CCN(c3nc(OC4CCN(CCOC)CC4)nc4c(OCC(F)(F)F)c(-c5c(C)ccc6[nH]ncc56)c(C5CC5)cc34)CC2)C1)c1cncnc1 [Compound 21]	> 90%
< 0.3 µM	C=C(C(=O)N1CC2(CCN(c3nc(OC4CCN(CCOC)CC4)nc4c(OCC(F)(F)F)c(-c5c(C)ccc6[nH]ncc56)c(C5CC5)cc34)CC2)C1)n1cncn1 [Compound 23]	> 90%
< 0.3 µM	C=C(C(=O)N1CC2(CCN(c3nc(OC4CCN(CCOC)CC4)nc4c(OCC(F)(F)F)c(-c5c(C)ccc6[nH]ncc56)c(C5CC5)cc34)CC2)C1)n1ccnn1 [Compound 25]	> 90%
< 0.3 µM	C=C(F)C(=O)N1CC2(CCN(c3nc(OC4CCN(CCOC)CC4)nc4c(OCC(F)(F)F)c(-c5c(F)ccc6cn[nH]c56)c(C5CC5)cc34)CC2)C1 [Compound 34]	> 90%
< 0.3 µM	C=CC(=O)N1CC2(CCN(c3nc(OC4CCN(CCOC)CC4)nc4c(OCC(F)(F)F)c(-c5c(C)ccc6[nH]nnc56)c(C5CC5)cc34)CC2)C1 [Compound 39]	> 90%
< 0.3 µM	C=C(F)C(=O)N1CC2(CCN(c3nc(OC4CCN(CCOC)CC4)nc4c(OCC(F)(F)F)c(-c5c(C)ccc6[nH]nnc56)c(C5CC5)cc34)CC2)C1 [Compound 40]	> 90%
< 0.3 µM	C=CC(=O)N1CC2(CCN(c3nc(OC4CCN(CCOC)CC4)nc4c(OCC(F)(F)F)c(-c5c(C)ccc6cc[nH]c(=O)c56)c(C5CC5)cc34)CC2)C1 [Compound 41]	> 90%
< 0.3 µM	C=CC(=O)N1CC2(CCN(c3nc(OC4CCN(CCOC)CC4)nc4c(OCC(F)(F)F)c(-c5c(C)ccc6nc[nH]c(=O)c56)c(C5CC5)cc34)CC2)C1 [Compound 43]	> 90%
< 0.3 µM	C=C(F)C(=O)N1CC2(CCN(c3nc(OC4CCN(CCOC)CC4)nc4c(OCC(F)(F)F)c(-c5c(C)ccc6nc[nH]c(=O)c56)c(C5CC5)cc34)CC2)C1 [Compound 44]	> 90%
< 0.3 µM	C=CC(=O)N1CC2(CCN(c3nc(OC4CCN(CCOC)CC4)nc4c(OCC(F)(F)F)c(-c5c(O)cccc5F)c(C5CC5)cc34)CC2)C1 [Compound 45]	> 90%
< 0.3 µM	C=C(F)C(=O)N1CC2(CCN(c3nc(OC4CCN(CCOC)CC4)nc4c(OCC(F)(F)F)c(-c5c(O)cccc5F)c(C5CC5)cc34)CC2)C1 [Compound 46]	> 90%
< 0.3 µM	C=CC(=O)N1CC2(CCN(c3nc(OC4CCN(CCOC)CC4)nc4c(OCC(F)(F)F)c(-c5c(N)cccc5F)c(C5CC5)cc34)CC2)C1 [Compound 47]	> 90%
< 0.3 µM	C=CC(=O)N1CC2(CCN(c3nc(OC4CCN(CCOC)CC4)nc4c(OCC(F)(F)F)c(-c5c(N)c(Cl)cc(Cl)c5F)c(C5CC5)cc34)CC2)C1 [Compound 49]	> 90%
< 0.3 µM	C=C(F)C(=O)N1CC2(CCN(c3nc(OC4CCN(CCOC)CC4)nc4c(OCC(F)(F)F)c(-c5c(N)c(Cl)cc(Cl)c5F)c(C5CC5)cc34)CC2)C1 [Compound 50]	> 90%
< 0.3 µM	C=CC(=O)N1CC2(CCN(c3nc(OC4CCN(CCOC)CC4)nc4c(OCC(F)(F)F)c(-c5ccccc5F)c(C5CC5)cc34)CC2)C1 [Compound 51]	> 90%
< 0.3 µM	C=C(F)C(=O)N1CC2(CCN(c3nc(OC4CCN(CCOC)CC4)nc4c(OCC(F)(F)F)c(-c5ccccc5F)c(C5CC5)cc34)CC2)C1 [Compound 52]	> 90%
